Source: patent US8680012B2, “4-phenyl-pyrane-3,5-diones,4-phenyl-thiopyrane-3,6-diones and cyclohexanetriones as novel herbicides” (Syngenta Crop Protection LLC, priority 2006, dated 2014)

The compounds below were run on Alopecurus myosuroides (ALOMY) (assay: Example B pre-emergence herbicidal activity, glasshouse pot test). Conditions: 312 h, rate 250 g/ha, evaluated after 13 days, read-out: Pre-emergence activity ALOMY (100=total damage to plant; 0=no damage to plant).
Type: in vivo
Procedure: (§1) Seeds of a variety of test species were sown in standard soil in pots. After cultivation for one day (pre-emergence) or after 8 days cultivation (post-emergence) under controlled conditions in a glasshouse (at 24/16° C., day/night; 14 hours light; 65% humidity), the plants were sprayed with an aqueous spray solution derived from the formulation of the technical active ingredient in acetone/water (50:50) solution containing 0.5% Tween 20 (polyoxyethelyene sorbitan monolaurate, CAS RN 9005-64-5). The test plants were then grown in a glasshouse under controlled conditions in a glasshouse (at 24/16° C., day/night; 14 hours light; 65% humidity) and watered twice daily. After 13 days for pre and post-emergence, the test was evaluated (100=total damage to plant; 0=no damage to plant).
(§2) Alopecurus myosuroides (ALOMY), Avena fatua (AVEFA), Setaria faberi (SETFA), Echinochloa crus-galli (ECHCG), Solanum nigrum (SOLNI) and Amaranthus retroflexus (AMARE)

| Structure (SMILES) | pest or weed control at 250 g/ha |
| --- | --- |
| CCc1ccc(-c2c(Cl)cc(Cl)cc2Cl)cc1C1=C(O)C(C)(C)OC(C)(C)C1=O [Compound A-74] | 20% |
| CCc1ccc(-c2ccc(Cl)nc2Cl)cc1C1=C(O)C(C)(C)OC(C)(C)C1=O [Compound A-75] | 30% |
| CCc1ccc(-c2ccc(Cl)nc2)cc1C1=C(O)C(C)(C)OC(C)(C)C1=O [Compound A-76] | 60% |
| CCc1ccc(-c2ccc(Cl)nc2C)cc1C1=C(O)C(C)(C)OC(C)(C)C1=O [Compound A-77] | 10% |

The compounds below were run on Amaranthus retroflexus (AMARE) in the same assay as above. Conditions: 312 h, rate 250 g/ha, evaluated after 13 days, read-out: Pre-emergence activity AMARE (100=total damage to plant; 0=no damage to plant).
Type: in vivo
Procedure: as §1, §2

| Structure (SMILES) | pest or weed control at 250 g/ha |
| --- | --- |
| CCc1ccc(-c2c(Cl)cc(Cl)cc2Cl)cc1C1=C(O)C(C)(C)OC(C)(C)C1=O [Compound A-74] | 10% |
| CCc1ccc(-c2ccc(Cl)nc2Cl)cc1C1=C(O)C(C)(C)OC(C)(C)C1=O [Compound A-75] | 0% |
| CCc1ccc(-c2ccc(Cl)nc2)cc1C1=C(O)C(C)(C)OC(C)(C)C1=O [Compound A-76] | 0% |
| CCc1ccc(-c2ccc(Cl)nc2C)cc1C1=C(O)C(C)(C)OC(C)(C)C1=O [Compound A-77] | 0% |

What follows are compounds tested on Avena fatua (AVEFA) in the same assay as above. Conditions: 312 h, rate 250 g/ha, evaluated after 13 days, read-out: Pre-emergence activity AVEFA (100=total damage to plant; 0=no damage to plant).
Type: in vivo
Procedure: as §1, §2

| Structure (SMILES) | pest or weed control at 250 g/ha |
| --- | --- |
| CCc1ccc(-c2c(Cl)cc(Cl)cc2Cl)cc1C1=C(O)C(C)(C)OC(C)(C)C1=O [Compound A-74] | 0% |
| CCc1ccc(-c2ccc(Cl)nc2Cl)cc1C1=C(O)C(C)(C)OC(C)(C)C1=O [Compound A-75] | 30% |
| CCc1ccc(-c2ccc(Cl)nc2)cc1C1=C(O)C(C)(C)OC(C)(C)C1=O [Compound A-76] | 50% |
| CCc1ccc(-c2ccc(Cl)nc2C)cc1C1=C(O)C(C)(C)OC(C)(C)C1=O [Compound A-77] | 0% |

Each compound was assayed on Echinochloa crus-galli (ECHCG) in the same assay as above. Conditions: 312 h, rate 250 g/ha, evaluated after 13 days, read-out: Pre-emergence activity ECHCG (100=total damage to plant; 0=no damage to plant).
Type: in vivo
Procedure: as §1, §2

| Structure (SMILES) | pest or weed control at 250 g/ha |
| --- | --- |
| CCc1ccc(-c2c(Cl)cc(Cl)cc2Cl)cc1C1=C(O)C(C)(C)OC(C)(C)C1=O [Compound A-74] | 80% |
| CCc1ccc(-c2ccc(Cl)nc2Cl)cc1C1=C(O)C(C)(C)OC(C)(C)C1=O [Compound A-75] | 90% |
| CCc1ccc(-c2ccc(Cl)nc2)cc1C1=C(O)C(C)(C)OC(C)(C)C1=O [Compound A-76] | 70% |
| CCc1ccc(-c2ccc(Cl)nc2C)cc1C1=C(O)C(C)(C)OC(C)(C)C1=O [Compound A-77] | 0% |

These compounds were tested on Setaria faberi (SETFA) in the same assay as above. Conditions: 312 h, rate 250 g/ha, evaluated after 13 days, read-out: Pre-emergence activity SETFA (100=total damage to plant; 0=no damage to plant).
Type: in vivo
Procedure: as §1, §2

| Structure (SMILES) | pest or weed control at 250 g/ha |
| --- | --- |
| CCc1ccc(-c2c(Cl)cc(Cl)cc2Cl)cc1C1=C(O)C(C)(C)OC(C)(C)C1=O [Compound A-74] | 50% |
| CCc1ccc(-c2ccc(Cl)nc2Cl)cc1C1=C(O)C(C)(C)OC(C)(C)C1=O [Compound A-75] | 90% |
| CCc1ccc(-c2ccc(Cl)nc2)cc1C1=C(O)C(C)(C)OC(C)(C)C1=O [Compound A-76] | 100% |
| CCc1ccc(-c2ccc(Cl)nc2C)cc1C1=C(O)C(C)(C)OC(C)(C)C1=O [Compound A-77] | 20% |

What follows are compounds tested on Alopecurus myosuroides (ALOMY) (assay: Example B post-emergence herbicidal activity, glasshouse pot test). Conditions: 312 h, rate 250 g/ha, evaluated after 13 days, read-out: Post-emergence activity ALOMY (100=total damage to plant; 0=no damage to plant).
Type: in vivo
Procedure: as §1, §2

| Structure (SMILES) | pest or weed control at 250 g/ha |
| --- | --- |
| CCc1ccc(-c2c(Cl)cc(Cl)cc2Cl)cc1C1=C(O)C(C)(C)OC(C)(C)C1=O [Compound A-74] | 0% |
| CCc1ccc(-c2ccc(Cl)nc2Cl)cc1C1=C(O)C(C)(C)OC(C)(C)C1=O [Compound A-75] | 90% |
| CCc1ccc(-c2ccc(Cl)nc2)cc1C1=C(O)C(C)(C)OC(C)(C)C1=O [Compound A-76] | 90% |
| CCc1ccc(-c2ccc(Cl)nc2C)cc1C1=C(O)C(C)(C)OC(C)(C)C1=O [Compound A-77] | 70% |

Each compound was assayed on Amaranthus retroflexus (AMARE) in the same assay as above. Conditions: 312 h, rate 250 g/ha, evaluated after 13 days, read-out: Post-emergence activity AMARE (100=total damage to plant; 0=no damage to plant).
Type: in vivo
Procedure: as §1, §2

| Structure (SMILES) | pest or weed control at 250 g/ha |
| --- | --- |
| CCc1ccc(-c2c(Cl)cc(Cl)cc2Cl)cc1C1=C(O)C(C)(C)OC(C)(C)C1=O [Compound A-74] | 70% |
| CCc1ccc(-c2ccc(Cl)nc2Cl)cc1C1=C(O)C(C)(C)OC(C)(C)C1=O [Compound A-75] | 0% |
| CCc1ccc(-c2ccc(Cl)nc2)cc1C1=C(O)C(C)(C)OC(C)(C)C1=O [Compound A-76] | 0% |
| CCc1ccc(-c2ccc(Cl)nc2C)cc1C1=C(O)C(C)(C)OC(C)(C)C1=O [Compound A-77] | 0% |

The compounds below were run on Avena fatua (AVEFA) in the same assay as above. Conditions: 312 h, rate 250 g/ha, evaluated after 13 days, read-out: Post-emergence activity AVEFA (100=total damage to plant; 0=no damage to plant).
Type: in vivo
Procedure: as §1, §2

| Structure (SMILES) | pest or weed control at 250 g/ha |
| --- | --- |
| CCc1ccc(-c2c(Cl)cc(Cl)cc2Cl)cc1C1=C(O)C(C)(C)OC(C)(C)C1=O [Compound A-74] | 0% |
| CCc1ccc(-c2ccc(Cl)nc2Cl)cc1C1=C(O)C(C)(C)OC(C)(C)C1=O [Compound A-75] | 90% |
| CCc1ccc(-c2ccc(Cl)nc2)cc1C1=C(O)C(C)(C)OC(C)(C)C1=O [Compound A-76] | 70% |
| CCc1ccc(-c2ccc(Cl)nc2C)cc1C1=C(O)C(C)(C)OC(C)(C)C1=O [Compound A-77] | 60% |

The compounds below were run on Echinochloa crus-galli (ECHCG) in the same assay as above. Conditions: 312 h, rate 250 g/ha, evaluated after 13 days, read-out: Post-emergence activity ECHCG (100=total damage to plant; 0=no damage to plant).
Type: in vivo
Procedure: as §1, §2

| Structure (SMILES) | pest or weed control at 250 g/ha |
| --- | --- |
| CCc1ccc(-c2c(Cl)cc(Cl)cc2Cl)cc1C1=C(O)C(C)(C)OC(C)(C)C1=O [Compound A-74] | 90% |
| CCc1ccc(-c2ccc(Cl)nc2Cl)cc1C1=C(O)C(C)(C)OC(C)(C)C1=O [Compound A-75] | 100% |
| CCc1ccc(-c2ccc(Cl)nc2)cc1C1=C(O)C(C)(C)OC(C)(C)C1=O [Compound A-76] | 100% |
| CCc1ccc(-c2ccc(Cl)nc2C)cc1C1=C(O)C(C)(C)OC(C)(C)C1=O [Compound A-77] | 100% |

What follows are compounds tested on Setaria faberi (SETFA) in the same assay as above. Conditions: 312 h, rate 250 g/ha, evaluated after 13 days, read-out: Post-emergence activity SETFA (100=total damage to plant; 0=no damage to plant).
Type: in vivo
Procedure: as §1, §2

| Structure (SMILES) | pest or weed control at 250 g/ha |
| --- | --- |
| CCc1ccc(-c2c(Cl)cc(Cl)cc2Cl)cc1C1=C(O)C(C)(C)OC(C)(C)C1=O [Compound A-74] | 90% |
| CCc1ccc(-c2ccc(Cl)nc2Cl)cc1C1=C(O)C(C)(C)OC(C)(C)C1=O [Compound A-75] | 100% |
| CCc1ccc(-c2ccc(Cl)nc2)cc1C1=C(O)C(C)(C)OC(C)(C)C1=O [Compound A-76] | 100% |
| CCc1ccc(-c2ccc(Cl)nc2C)cc1C1=C(O)C(C)(C)OC(C)(C)C1=O [Compound A-77] | 90% |
